Assay results published in PubChem BioAssay AID330 (DTP/NCI, 2004).
Where “and” joins values, the source holds several entries; their conditions need not be identical. Identical values can stand only once. Inconclusive results and toxic doses are left out. Peptide text beside a SMILES is read from it.

Tested on: P388 leukemia ip, CD2F1 mice, survival T/C
Test: NCI In Vivo Anticancer Drug Screen. Data for tumor model P388 Leukemia (intraperitoneal) in CD2F1 (CDF1) mice
Conditions: endpoint: median survival time, higher = longer survival
How it was run: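 Mice carrying the transplanted tumor received test compound or vehicle. Survival was recorded in each group, and the value is the treated-group measurement divided by that of the vehicle-treated control group.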

[1] = dose: 12.5 mg/kg/injection, schedule: Q01DX009 (ip), vehicle: saline
[2] = dose: 25.0 mg/kg/injection, schedule: Q01DX009 (ip), vehicle: saline
[3] = dose: 60.0 mg/kg/injection, schedule: Q01DX005 (ip), vehicle: saline with Tween-80
[4] = dose: 120.0 mg/kg/injection, schedule: Q01DX005 (ip), vehicle: saline with Tween-80
[5] = dose: 240.0 mg/kg/injection, schedule: Q01DX005 (ip), vehicle: saline with Tween-80
[6] = dose: 50.0 mg/kg/injection, schedule: Q01DX005 (ip), vehicle: saline
[7] = dose: 100.0 mg/kg/injection, schedule: Q01DX005 (ip), vehicle: saline
[8] = dose: 50.0 mg/kg/injection, schedule: Q01DX005 (ip), vehicle: Klucel (hydroxypropylcellulose) (HPC)
[9] = dose: 100.0 mg/kg/injection, schedule: Q01DX005 (ip), vehicle: Klucel (hydroxypropylcellulose) (HPC)
[10] = dose: 25.0 mg/kg/injection, schedule: Q01DX009 (ip), vehicle: saline with Tween-80
[11] = dose: 50.0 mg/kg/injection, schedule: Q01DX009 (ip), vehicle: saline with Tween-80
[12] = dose: 100.0 mg/kg/injection, schedule: Q01DX009 (ip), vehicle: saline with Tween-80
[13] = dose: 200.0 mg/kg/injection, schedule: Q01DX009 (ip), vehicle: saline with Tween-80
[14] = dose: 100.0 mg/kg/injection, schedule: Q04DX003 (ip), vehicle: saline with Tween-80
[15] = dose: 200.0 mg/kg/injection, schedule: Q04DX003 (ip), vehicle: saline with Tween-80
[16] = dose: 50.0 mg/kg/injection, schedule: Q01DX009 (ip), vehicle: saline

## c1cc(C2N3CCCN2CC3)ccn1 (configuration not stated)
dose: 3.12 mg/kg/injection, schedule: Q01DX009 (ip), vehicle: saline
  T/C: 104 % of control
[1]
  T/C: 103 % of control
[2]
  T/C: 110 % of control

## [Se]=P(N1CCOCC1)(N1CCOCC1)N1CCOCC1
dose: 13.75 mg/kg/injection, schedule: Q01DX001 (ip), vehicle: Klucel (hydroxypropylcellulose) (HPC)
  T/C: 101 % of control
dose: 27.5 mg/kg/injection, schedule: Q01DX001 (ip), vehicle: Klucel (hydroxypropylcellulose) (HPC)
  T/C: 104 % of control

## N#CCCN(CCC#N)c1ccc(CC2C(=O)N(c3cccc(S(=O)(=O)O)c3)N=C2C(=O)O)cc1 (configuration not stated)
[3]
  T/C: 93 % of control
[4]
  T/C: 96 % of control
[5]
  T/C: 95 % of control

## Cc1cc(NN)nc2n[nH]c(N)c12
dose: 12.5 mg/kg/injection, schedule: Q01DX005 (ip), vehicle: saline with Tween-80
  T/C: 105 % of control
dose: 25.0 mg/kg/injection, schedule: Q01DX005 (ip), vehicle: saline with Tween-80
  T/C: 97 % of control
dose: 50.0 mg/kg/injection, schedule: Q01DX005 (ip), vehicle: saline with Tween-80
  T/C: 102 % of control and 112 % of control

## Cc1ccc(C(=O)c2ccc[n+](C)c2)cc1
[6]
  T/C: 100 % of control
[7]
  T/C: 101 % of control

## COc1cc(C(=O)C2OC2c2ccc(Cl)cc2)c([N+](=O)[O-])cc1OC (configuration not stated)
[8]
  T/C: 93 % of control
[9]
  T/C: 98 % of control
dose: 200.0 mg/kg/injection, schedule: Q01DX005 (ip), vehicle: Klucel (hydroxypropylcellulose) (HPC)
  T/C: 96 % of control

## O=[N+]([O-])c1ccc(S(=O)(=O)c2ccc([N+](=O)[O-])cc2)cc1
dose: 6.25 mg/kg/injection, schedule: Q04DX003 (ip), vehicle: suspension in saline
  T/C: 100 % of control
dose: 12.5 mg/kg/injection, schedule: Q04DX003 (ip), vehicle: suspension in saline
  T/C: 100 % of control
dose: 25.0 mg/kg/injection, schedule: Q04DX003 (ip), vehicle: suspension in saline
  T/C: 108 % of control
dose: 50.0 mg/kg/injection, schedule: Q04DX003 (ip), vehicle: suspension in saline
  T/C: 106 % of control

## Nc1ncnc2c1ncn2C1OC(CO)C2OC(=S)OC21 (configuration not stated)
[10]
  T/C: 96 % of control
[11]
  T/C: 101 % of control
[12]
  T/C: 100 % of control
[13]
  T/C: 100 % of control

## CC1CNCC(C)N1Cc1ccccc1 (configuration not stated)
[6]
  T/C: 108 % of control
[7]
  T/C: 99 % of control

## C1=CN2C3=NCCN3C3=NCCN3C2c2ccccc21 (configuration not stated)
dose: 12.5 mg/kg/injection, schedule: Q04DX002 (ip), vehicle: Klucel (hydroxypropylcellulose) (HPC)
  T/C: 102 % of control
dose: 25.0 mg/kg/injection, schedule: Q04DX002 (ip), vehicle: Klucel (hydroxypropylcellulose) (HPC)
  T/C: 99 % of control
dose: 50.0 mg/kg/injection, schedule: Q04DX002 (ip), vehicle: Klucel (hydroxypropylcellulose) (HPC)
  T/C: 102 % of control

## O=C1C2CCCC1C(c1ccccc1Cl)NC2c1ccccc1Cl (configuration not stated)
dose: 100.0 mg/kg/injection, schedule: Q04DX003 (ip), vehicle: saline
  T/C: 89 % of control
dose: 200.0 mg/kg/injection, schedule: Q04DX003 (ip), vehicle: saline
  T/C: 96 % of control
dose: 400.0 mg/kg/injection, schedule: Q04DX003 (ip), vehicle: saline
  T/C: 94 % of control

## N#Cc1cccn1OCN1C(=O)c2ccccc2C1=O
dose: 25.0 mg/kg/injection, schedule: Q04DX003 (ip), vehicle: Klucel (hydroxypropylcellulose) (HPC)
  T/C: 100 % of control
dose: 50.0 mg/kg/injection, schedule: Q04DX003 (ip), vehicle: Klucel (hydroxypropylcellulose) (HPC)
  T/C: 103 % of control
dose: 100.0 mg/kg/injection, schedule: Q04DX003 (ip), vehicle: Klucel (hydroxypropylcellulose) (HPC)
  T/C: 100 % of control and 92 % of control
dose: 400.0 mg/kg/injection, schedule: Q04DX003 (ip), vehicle: Klucel (hydroxypropylcellulose) (HPC)
  T/C: 87 % of control

## O=S1(=O)c2cccc(c2)NC(=S)/C([n+]2ccccc2)=C(/[O-])c2ccc(cc2)CC2CCCCN21 (configuration not stated)
[8]
  T/C: 94 % of control
[9]
  T/C: 87 % of control

## CSCCC(N)C(=O)NC(CC(N)=O)C(=O)O (stereo not drawn) (H-Met-Asn-OH; configuration not given here)
[6]
  T/C: 98 % of control
[7]
  T/C: 101 % of control
dose: 200.0 mg/kg/injection, schedule: Q01DX005 (ip), vehicle: saline
  T/C: 99 % of control

## Nc1[nH]nc2nc(-c3ccccc3)cnc12
[10]
  T/C: 90 % of control
[11]
  T/C: 86 % of control
[12]
  T/C: 90 % of control
[14]
  T/C: 90 % of control
[15]
  T/C: 90 % of control
dose: 400.0 mg/kg/injection, schedule: Q04DX003 (ip), vehicle: saline with Tween-80
  T/C: 90 % of control

## O=C1c2ccccc2C(O)(C#Cc2ccccc2)c2c1oc1c2ccc2ccccc21 (configuration not stated)
dose: 12.5 mg/kg/injection, schedule: Q01DX009 (ip), vehicle: saline with Tween-80
  T/C: 97 % of control
[10]
  T/C: 92 % of control
[11]
  T/C: 90 % of control
[12]
  T/C: 108 % of control

## CCC1=C[C@H]2CN(CCc3c([nH]c4ccccc34)[C@@](C(=O)OC)(c3cc4c(cc3OC)N(C)[C@H]3[C@@](O)(C(=O)NN)[C@H](O)[C@]5(CC)C=CCN6CC[C@]43[C@@H]65)C2)C1
dose: 0.5 mg/kg/injection, schedule: Q01DX001 (ip), vehicle: water
  T/C: 174 % of control
dose: 1.0 mg/kg/injection, schedule: Q01DX001 (ip), vehicle: water
  T/C: 164 % of control and 175 % of control
dose: 2.0 mg/kg/injection, schedule: Q01DX001 (ip), vehicle: water
  T/C: 183 % of control and 193 % of control

## CCCCNC(=O)Nc1ccc(C(=O)OCCCC)cc1
[14]
  T/C: 100 % of control
[15]
  T/C: 90 % of control

## BrC(Br)(c1ccccc1)C1OCCO1
[11]
  T/C: 109 % of control
[12]
  T/C: 109 % of control
[13]
  T/C: 113 % of control

## CCN(CC)CCOC(=O)C(c1ccccc1)C1(O)CCCCC1 (configuration not stated)
[6]
  T/C: 100 % of control
[7]
  T/C: 107 % of control

## COc1ccc(C2c3c(ccc4ccccc34)Oc3ccc4ccccc4c32)cc1
[3]
  T/C: 87 % of control
[4]
  T/C: 86 % of control
[5]
  T/C: 90 % of control

## CCC1C[N+]2(C)CCc3cc(OC)c(OC)cc3C2CC1=O (configuration not stated)
[1]
  T/C: 94 % of control
[2]
  T/C: 93 % of control
[11]
  T/C: 106 % of control
[16]
  T/C: 100 % of control

## O=C(O)Cc1cccc2c(=O)cc(-c3ccccc3)oc12
dose: 24.12 mg/kg/injection, schedule: Q01DX005 (ip), vehicle: saline
  T/C: 104 % of control
dose: 30.0 mg/kg/injection, schedule: Q01DX009 (ip), vehicle: saline
  T/C: 101 % of control and 103 % of control and 106 % of control
dose: 40.2 mg/kg/injection, schedule: Q01DX005 (ip), vehicle: saline
  T/C: 111 % of control
dose: 44.0 mg/kg/injection, schedule: Q01DX009 (ip), vehicle: saline
  T/C: 109 % of control and 117 % of control and 122 % of control
dose: 45.0 mg/kg/injection, schedule: Q01DX009 (ip), vehicle: sodium bicarbonate
  T/C: 116 % of control
[16]
  T/C: 106 % of control
dose: 60.0 mg/kg/injection, schedule: Q04DX002 (ip), vehicle: sodium bicarbonate
  T/C: 103 % of control
dose: 67.0 mg/kg/injection, schedule: Q01DX001 (ip), vehicle: sodium bicarbonate
  T/C: 112 % of control
dose: 90.0 mg/kg/injection, schedule: Q04DX002 (ip), vehicle: sodium bicarbonate
  T/C: 118 % of control
dose: 100.0 mg/kg/injection, schedule: Q01DX001 (ip), vehicle: sodium bicarbonate
  T/C: 107 % of control
dose: 111.67 mg/kg/injection, schedule: Q01DX005 (ip), vehicle: saline
  T/C: 153 % of control
dose: 150.0 mg/kg/injection, schedule: Q01DX001 (ip), vehicle: sodium bicarbonate
  T/C: 106 % of control
dose: 186.12 mg/kg/injection, schedule: Q01DX005 (ip), vehicle: saline
  T/C: 172 % of control
dose: 200.0 mg/kg/injection, schedule: Q01DX001 (ip), vehicle: sodium bicarbonate
  T/C: 112 % of control
dose: 223.0 mg/kg/injection, schedule: Q01DX001 (ip), vehicle: sodium bicarbonate
  T/C: 103 % of control
dose: 300.0 mg/kg/injection, schedule: Q01DX001 (ip), vehicle: sodium bicarbonate
  T/C: 116 % of control
dose: 333.0 mg/kg/injection, schedule: Q01DX001 (ip), vehicle: sodium bicarbonate
  T/C: 112 % of control
dose: 400.0 mg/kg/injection, schedule: Q01DX001 (ip), vehicle: sodium bicarbonate
  T/C: 114 % of control
dose: 500.0 mg/kg/injection, schedule: Q01DX001 (ip), vehicle: sodium bicarbonate
  T/C: 116 % of control
